# Measurements taken from patent publication US6469028B1, “Synthesis and use of retinoid compounds having negative hormone and/or anatgonist activities” (Allergan, Inc., priority 1995, dated 2002).
# Experiments:
# Assay in all cases: Ligand binding assay
# RARβ = target: T1, RARβ (Homo sapiens, UniProt P10826); settings: read-out: Kd (nanomolar) RARβ
# T1 sequence (P10826 1-455): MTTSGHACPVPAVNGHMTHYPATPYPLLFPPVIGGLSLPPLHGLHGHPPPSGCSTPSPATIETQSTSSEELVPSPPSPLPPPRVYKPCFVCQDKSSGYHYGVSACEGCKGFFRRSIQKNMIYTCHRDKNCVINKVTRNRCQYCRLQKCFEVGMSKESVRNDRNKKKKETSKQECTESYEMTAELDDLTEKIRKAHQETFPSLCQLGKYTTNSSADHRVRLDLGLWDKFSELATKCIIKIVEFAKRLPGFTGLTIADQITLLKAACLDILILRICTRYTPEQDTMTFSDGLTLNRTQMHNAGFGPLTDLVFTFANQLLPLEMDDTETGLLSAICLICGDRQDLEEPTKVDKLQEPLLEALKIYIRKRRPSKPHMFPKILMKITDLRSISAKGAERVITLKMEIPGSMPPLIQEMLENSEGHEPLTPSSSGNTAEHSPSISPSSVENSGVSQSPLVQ
# Description: (§1) A holoreceptor transactivation assay and a ligand binding assay which measure the antagonist/agonist like activity of the compounds of the invention, or their ability to bind to the several retinoid receptor subtypes, respectively, are described in published PCT Application No. WO93/11755 (particularly on pages 30-33 and 37-41) published on Jun. 24, 1993, the specification of which is also incorporated herein by reference. A description of the holoreceptor transactivation assay is also provided below.
# (§2) CV1 cells (5,000 cells/well) were transfected with an RAR reporter plasmid MTV-TREp-LUC (50 ng) along with one of the RAR expression vectors (10 ng) in an automated 96-well format by the calcium phosphate procedure of Heyman et al. Cell 68: 397-406. For RXR-α and RXR-γ transactivation assays, an RXR-responsive reporter plasmid CRBPII-tk-LUC (50 ng) along with the appropriate RXR expression vectors (10 ng) was used substantially as described by Heyman et al. above, and Allegretto et al. J. Biol. Chem. 268: 26625-26633. For RXR-β transactivation assays, an RXR-responsive reporter plasmid CPRE-tk-LUC ([…]) along with RXR-β expression vector ([…]) was used as described in above. These reporters contain DRI elements from human CRBPII and certain DRI elements from promotor, respectively (see Mangelsdorf et al. The Retinoids: Biology Chemistry and Medicine, pp. 319-349, Raven Press Ltd., New York and Heyman et al., cited above). A β-galactosidase (50 ng) expression vector was used as an internal control in the transfections to normalize for variations in transfection efficiency. The cells were transfected in triplicate for 6 hours, followed by incubation with retinoids for 36 hours, and the extracts were assayed for luciferase and […] activities. The detailed experimental procedure for holoreceptor transactivations has been described in Heyman et al. above, and Allegretto et al. cited above. The results obtained in this assay are expressed in EC50 numbers, as they are also in the chimeric receptor transactivation assay. The Heyman et al. Cell 68: 397-406, Allegretto et al. J. Biol. Chem. 268: 26625-26633, and Mangelsdorf et al. The Retinoids: Biology, Chemistry, and Medicine, pp. 319-349, Raven Press Ltd., New York, are expressly incorporated herein by reference. The results of ligand binding assay are expressed in Kd numbers. (See Cheng et al. Biochemical Pharmacology 22: 3099-3108, expressly incorporated herein by reference.) […]
# RARγ = target: T2, RARγ (Homo sapiens, UniProt P13631); design: expressed in transfected cells; host or cells: CV1 cells; settings: read-out: Kd (nanomolar) RARγ
# T2 sequence (P13631 1-454): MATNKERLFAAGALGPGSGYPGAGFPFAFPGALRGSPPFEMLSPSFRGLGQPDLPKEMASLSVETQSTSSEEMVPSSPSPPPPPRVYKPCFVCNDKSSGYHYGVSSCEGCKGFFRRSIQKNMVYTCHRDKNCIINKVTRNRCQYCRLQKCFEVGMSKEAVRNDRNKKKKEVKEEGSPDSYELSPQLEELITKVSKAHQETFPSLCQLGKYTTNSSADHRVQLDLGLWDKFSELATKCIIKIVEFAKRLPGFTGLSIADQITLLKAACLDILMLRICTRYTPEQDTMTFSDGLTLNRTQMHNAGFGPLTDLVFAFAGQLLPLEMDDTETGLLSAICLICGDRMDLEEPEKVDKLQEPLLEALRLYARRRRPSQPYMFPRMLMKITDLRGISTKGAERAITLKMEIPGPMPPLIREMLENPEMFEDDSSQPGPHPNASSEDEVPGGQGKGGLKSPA
# Description: as §1, §2
# RARα = target: T3, RARα (Homo sapiens, UniProt P10276); design: expressed in transfected cells; host or cells: CV1 cells; settings: read-out: Kd (nanomolar) RARα
# T3 sequence (P10276 1-462): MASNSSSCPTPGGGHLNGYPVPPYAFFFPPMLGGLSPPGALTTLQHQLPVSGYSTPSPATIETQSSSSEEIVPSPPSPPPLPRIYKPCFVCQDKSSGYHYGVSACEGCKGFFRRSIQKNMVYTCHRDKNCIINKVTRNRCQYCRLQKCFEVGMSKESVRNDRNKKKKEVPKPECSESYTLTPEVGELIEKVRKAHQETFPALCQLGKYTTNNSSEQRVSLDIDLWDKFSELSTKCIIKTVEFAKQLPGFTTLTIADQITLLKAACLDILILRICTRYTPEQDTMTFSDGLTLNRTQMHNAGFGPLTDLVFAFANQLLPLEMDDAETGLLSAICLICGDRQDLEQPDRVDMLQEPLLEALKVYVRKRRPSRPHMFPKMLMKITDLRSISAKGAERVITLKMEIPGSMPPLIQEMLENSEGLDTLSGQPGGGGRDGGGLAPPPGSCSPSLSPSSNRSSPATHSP
# Description: as §1, §2
Kd (RARβ),Kd (RARγ),Kd (RARα),Compound
11 nM,24 nM,24 nM,"Cc1ccc(C2=CCC(C)(C)c3ccc(C#Cc4ccc(C(=O)O)cc4)cc32)cn1 [Compound 18, 4-[(5,6-Dihydro-5,5-dimethyl-8-(2-methyl-5-pyridyl)-2-naphthalenyl)ethynyl]benzoic acid]"
210 nM,659 nM,565 nM,"CC1(C)CC=C(c2ccccn2)c2cc(C#Cc3ccc(C(=O)O)cc3)ccc21 [Compound 19, 4-[(5,6-Dihydro-5,5-dimethyl-8-(2-pyridyl)-2-naphthalenyl)ethynyl]benzoic acid]"
22 nM,34 nM,130 nM,"Cc1cccc(C2=CCC(C)(C)c3ccc(C#Cc4ccc(C(=O)O)cc4)cc32)c1 [Compound 20, 4-[(5,6-Dihydro-5,5-dimethyl-8-(3-methylphenyl)-2-naphthalenyl)ethynyl]benzoic acid]"
9 nM,13 nM,16 nM,"CCc1ccc(C2=CCC(C)(C)c3ccc(C#Cc4ccc(C(=O)O)cc4)cc32)cc1 [Compound 21, 4-[(5,6-Dihydro-5,5-dimethyl-8-(4-ethylphenyl)-2-naphthalenyl)ethynyl]benzoic acid]"
17 nM,27 nM,24 nM,"COc1ccc(C2=CCC(C)(C)c3ccc(C#Cc4ccc(C(=O)O)cc4)cc32)cc1 [Compound 22, 4-[(5,6-Dihydro-5,5-dimethyl-8-(4-methoxyphenyl)-2-naphthalenyl)ethynyl]benzoic acid]"
25 nM,31 nM,32 nM,"CC1(C)CC=C(c2ccc(C(F)(F)F)cc2)c2cc(C#Cc3ccc(C(=O)O)cc3)ccc21 [Compound 23, 4-[(5,6-Dihydro-5,5-dimethyl-8-(4-trifluoromethylphenyl)-2-naphthalenyl)ethynyl]benzoic acid]"
235 nM,286 nM,699 nM,"Cc1cc(C)cc(C2=CCC(C)(C)c3ccc(C#Cc4ccc(C(=O)O)cc4)cc32)c1 [Compound 24, 4-[(5 6-Dihydro-5,5-dimethyl-8-(3,5-dimethylphenyl)-2-naphthalenyl)ethynyl]benzoic acid]"
17 nM,20 nM,50 nM,"CC1(C)CC=C(c2ccc(Cl)cc2)c2cc(C#Cc3ccc(C(=O)O)cc3)ccc21 [Compound 25, 4-[(5,6-Dihydro-5,5-dimethyl-8-(4-chlorophenyl)-2-naphthalenyl)ethynyl]benzoic acid]"
31 nM,36 nM,40 nM,"CC1(C)CC=C(c2cccnc2)c2cc(C#Cc3ccc(C(=O)O)cc3)ccc21 [Compound 26, 4-[(5,6-Dihydro-5,5-dimethyl-8-(3-pyridyl)-2-naphthalenyl)ethynyl]benzoic acid]"
14 nM,26 nM,69 nM,"Cc1ccccc1C1=CCC(C)(C)c2ccc(C#Cc3ccc(C(=O)O)cc3)cc21 [Compound 27, 4-[(5,6-Dihydro-5,5-dimethyl-8-(2-methylphenyl)-2-naphthalenyl)ethynyl]benzoic acid]"
77 nM,236 nM,669 nM,"CC1(C)CC=C(c2cccc(O)c2)c2cc(C#Cc3ccc(C(=O)O)cc3)ccc21 [Compound 28, 4-[(5,6-Dihydro5,5-dimethyl-8-(3-hydroxyphenyl)-2-naphthalenyl)ethynyl]benzoic acid]"
48 nM,80 nM,234 nM,"CC1(C)CC=C(c2ccc(O)cc2)c2cc(C#Cc3ccc(C(=O)O)cc3)ccc21 [Compound 29, 4-[(5,6-Dihydro-5,5-dimethyl-8-(4-hydroxyphenyl)-2-naphthalenyl)ethynyl]benzoic acid]"
141 nM,219 nM,683 nM,"Cc1cnc(C2=CCC(C)(C)c3ccc(C#Cc4ccc(C(=O)O)cc4)cc32)s1 [Compound 30, 4-[(5,6-Dihydro-5,5-dimethyl-8-(5-methylthiazol-2-yl)-2-naphthalenyl)ethynyl]benzoic acid]"
52 nM,100 nM,370 nM,"Cc1csc(C2=CCC(C)(C)c3ccc(C#Cc4ccc(C(=O)O)cc4)cc32)n1 [Compound 31, 4-[(5,6-Dihydro-5,5-dimethyl-8-(4-methylthiazol-2-yl)-2-naphthalenyl)ethynyl]benzoic acid]"
89 nM,169 nM,–,Cc1nc(C2=CCC(C)(C)c3ccc(C#Cc4ccc(C(=O)O)cc4)cc32)sc1C [Compound 32]
30 nM,17 nM,52 nM,"Cc1ccc(C2=CCC(C)(C)c3ccc(C#Cc4ccc(C(=O)O)cc4)cc32)s1 [Compound 34, 4-[(5,6-Dihydro-5,5-dimethyl-8-(5-methyl-2-thienyl)-2-naphthalenyl)ethynyl]benzoic acid]"
550 nM,–,13 nM,"Cc1ccc(C2=CCC(C)(C)c3ccc(C(=O)Nc4ccc(C(=O)O)cc4)cc32)cc1 [Compound 36, 4-[[(5,6-Dihydro-5,5-dimethyl-8-(4-methylphenyl)-2-naphthalenyl)carbonyl]amino]-benzoic acid]"
38 nM,113 nM,67 nM,"Cc1ccc(C2=CCC(C)(C)c3ccc(C(=O)Oc4ccc(C(=O)O)cc4)cc32)cc1 [Compound 39, 4-[[(5,6-Dihydro-5,5-dimethyl-8-(4-methylphenyl)-2-naphthalenyl)carbonyl]oxy]-benzoic acid]"
491 nM,725 nM,5.1 nM,"Cc1ccc(C2=CCC(C)(C)c3ccc(C(=O)Nc4ccc(C(=O)O)c(F)c4)cc32)cc1 [Compound 41, 2-Fluoro-4-[[(5,6-dihydro-5,5-dimethyl-8-(4methylphenyl)-2-naphthalenyl)carbonyl]amino]-benzoic acid]"
2.8 nM,17 nM,12 nM,Cc1ccc(C2=CCC(C)(C)c3ccc(/C=C/c4ccc(C(=O)O)cc4)cc32)cc1 [Compound 45]
3220 nM,–,133 nM,"Cc1ccc(C2=CCC(C)(C)c3ccc(C(=S)Nc4ccc(C(=O)O)c(F)c4)cc32)cc1 [Compound 63, 2-fluoro-4-[[(5,6-dihydro-5,5-dimethyl-8-(4-methylphenyl)-2-naphthalenyl)thiocarbonyl]amino]-benzoic acid]"
